Data on one compound can be found in patent US20180153872A1, “HETEROARYL CARBONITRILES FOR THE TREATMENT OF DISEASE” (OPKO Health, Inc., priority 2015, published 2018).

Data set [1] deals with cough induced by mechanical stimulation of the intrathoracic trachea. Nature of the data set: Mechanically induced cough in anesthetized dogs. It is filed as in vivo. The settings on record: anesthetized dog, 0.3 mg/kg oral. Here is the method:
The antitussive activity of SCH 900978 was also evaluated against cough induced by mechanical stimulation of the intrathoracic trachea in anesthetized dogs. Cough was measured in each stimulation trial by the cough frequency (number of coughs) and cough amplitude (cm H2O increase in expiratory pressure). […] Plasma concentration of SCH900978 at 2, 6 and 25 hours after administration of the 0.3 mg/kg dose to dogs were 201, 151 and 102 ng/mL (373, 280 and 189 nM), respectively.

Another data set concerns the target T1, NK3 receptor (Homo sapiens, UniProt P29371).
T1 sequence (P29371 1-465): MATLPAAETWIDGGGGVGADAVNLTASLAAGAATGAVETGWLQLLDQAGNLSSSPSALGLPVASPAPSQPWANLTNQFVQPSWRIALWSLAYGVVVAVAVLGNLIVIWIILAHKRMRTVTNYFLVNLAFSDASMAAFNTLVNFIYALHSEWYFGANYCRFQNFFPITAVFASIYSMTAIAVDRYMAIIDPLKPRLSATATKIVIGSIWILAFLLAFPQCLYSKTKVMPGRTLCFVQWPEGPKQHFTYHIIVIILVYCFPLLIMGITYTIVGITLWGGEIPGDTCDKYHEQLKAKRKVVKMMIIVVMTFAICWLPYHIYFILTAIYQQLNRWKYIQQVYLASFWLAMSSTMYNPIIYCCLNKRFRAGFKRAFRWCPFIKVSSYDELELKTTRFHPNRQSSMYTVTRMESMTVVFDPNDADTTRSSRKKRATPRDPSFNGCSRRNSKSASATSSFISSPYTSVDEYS
As to the kind of experiment: NK3 receptor affinity. It is filed as binding. From the text: A compound of formula I (also designated SCH 900978) is a potent, selective, competitive neurokinin-1 (NK-1) receptor antagonist that is effective as an oral administered drug for the treatment of cough and meets this unmet medical need. In addition, this drug is effective for the treatment of overactive bladder (OAB) and other selected indications including major depression and alcohol dependency. […] The present invention comprises a compound of formula I having an effective dose for 90% inhibition [ED90]=0.2 mg/kg as determined in an in vivo pharmacodynamic model of NK1 receptor activity (gerbil foot thumping).
(§1) SCH900978 was also tested for NK2 and NK3 receptor activity and in 106 other receptors, transporters, enzymes and ion channels and had greater than 1000 fold lower affinity for these than for the NK1 receptor.

Data set [2] addresses NK1 receptors (Mus musculus, UniProt P30548). As to the kind of experiment: NK1 receptor radioligand binding, mouse. The settings on record: no unit, Ki in nM. Here is the method:
as §1

A short description of another data set: log D, octanol/water. It is filed as physicochemical. Conditions: pH 7.4, octanol/water system. From the text: The present invention comprises a compound having activity in mammalian cough models and is thus useful in the treatment of cough in mammals, including humans, after oral administration. The present invention comprises an oral formulation of a compound of formula I and pharmaceutically acceptable excipients selected from the group consisting of diluents, binders, disintegrants, wetting agents and lubricants. In a preferred embodiment the pharmaceutical composition comprises a compound of formula I (or IIa-IIc) or II and lactose monohydrate, microcrystalline cellulose, povidone, crospovidone, poloxamer 188 and magnesium stearate. The preferred oral form is a capsule. The amount of active ingredient in the capsule or oral dosage form may range from 1 mg to 250 mgs with a preferred range of 10-150 mg with a more preferred range of 20-100 mg per day in humans. The present invention also relates to an NK-1 antagonist (e.g., Formula II) having a half-life of approximately 10-13 days. The present invention further relates to a method of treating pruritus comprising administering a pharmaceutically effective amount of a compound of formula II having a half-life of 10-13 days to a patient in need of treatment thereof. […] The measured onset melting temperature as measured by differential scanning calorimetry (DSC) is 168.9. […]

The next data set has as its target hERG gene current (Homo sapiens, UniProt Q12809). As to the kind of experiment: hERG current inhibition. It is filed as cell-based. Here is the method: A series of in vitro and in vivo studies examined the effects of SCH900978 on cardiovascular, respiratory and CNS functions. No adverse effects were observed. The NOAEL was ≥25 mg/kg in male rats, ≥12.5 mg/kg in female rats and ≥10 mg/kg in male cynomolgus monkeys; each dose was the highest dose tested.
(In general: Block of hERG is tested as a sign of cardiac risk.)

Data set [3] in a line: Brain penetration, gerbils. Type of data set: in vivo, gerbil. Here is the method:
(§2) Urinary excretion was also substantial (approximately 20%).
The extent of brain penetration by SCH 900978 was evaluated after oral administration of SCH 900978 amorphous hydrochloride to female gerbils (0.1 mg/kg), male Sprague Dawley rats (5 mg/kg), and male guinea pigs (0.3 mg/kg).

Data set [4] can be described thus: Pharmacokinetics/toxicokinetics and excretion in monkeys. It is filed as in vivo, monkey. Conditions: for plasma concentration-time profile: single oral dose.
From the text: as §2

The target of data set [5] is NK1 receptors (Rattus norvegicus, UniProt P14600). Nature of the data set: NK1 receptor radioligand binding, rat. The settings on record: no unit, Ki in nM. The method, then:
as §1

Chain of hERG gene current (Q12809 whole entry): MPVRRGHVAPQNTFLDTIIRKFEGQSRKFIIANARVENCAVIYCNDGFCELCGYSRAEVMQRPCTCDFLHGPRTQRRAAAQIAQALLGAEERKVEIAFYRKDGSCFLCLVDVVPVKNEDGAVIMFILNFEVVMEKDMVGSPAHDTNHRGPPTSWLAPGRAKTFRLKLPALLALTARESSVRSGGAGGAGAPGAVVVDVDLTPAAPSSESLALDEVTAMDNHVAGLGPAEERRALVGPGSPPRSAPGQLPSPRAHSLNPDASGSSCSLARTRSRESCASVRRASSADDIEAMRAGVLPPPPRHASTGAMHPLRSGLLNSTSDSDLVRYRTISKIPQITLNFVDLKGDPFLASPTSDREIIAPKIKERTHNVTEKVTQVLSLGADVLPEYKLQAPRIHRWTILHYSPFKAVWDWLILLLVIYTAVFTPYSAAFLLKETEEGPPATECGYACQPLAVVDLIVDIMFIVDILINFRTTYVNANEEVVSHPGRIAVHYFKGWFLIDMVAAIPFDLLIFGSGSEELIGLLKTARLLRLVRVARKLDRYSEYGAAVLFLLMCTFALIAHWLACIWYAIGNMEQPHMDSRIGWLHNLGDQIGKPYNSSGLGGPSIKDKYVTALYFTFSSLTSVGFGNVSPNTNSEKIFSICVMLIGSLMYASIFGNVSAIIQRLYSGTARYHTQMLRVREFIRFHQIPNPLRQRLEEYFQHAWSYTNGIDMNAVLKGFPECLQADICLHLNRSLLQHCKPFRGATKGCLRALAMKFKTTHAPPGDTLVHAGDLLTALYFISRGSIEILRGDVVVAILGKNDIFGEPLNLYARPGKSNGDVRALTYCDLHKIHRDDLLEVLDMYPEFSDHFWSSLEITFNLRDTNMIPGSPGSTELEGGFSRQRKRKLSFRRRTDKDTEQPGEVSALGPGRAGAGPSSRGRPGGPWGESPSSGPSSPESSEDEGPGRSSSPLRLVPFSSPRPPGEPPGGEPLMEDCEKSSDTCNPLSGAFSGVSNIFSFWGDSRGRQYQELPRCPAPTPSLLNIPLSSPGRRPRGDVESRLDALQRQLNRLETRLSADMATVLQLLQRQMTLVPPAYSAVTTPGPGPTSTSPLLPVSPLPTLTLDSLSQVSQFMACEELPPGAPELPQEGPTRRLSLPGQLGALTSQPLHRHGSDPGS
Chain of NK1 receptors (Mus musculus, UniProt P30548) (P30548 whole entry): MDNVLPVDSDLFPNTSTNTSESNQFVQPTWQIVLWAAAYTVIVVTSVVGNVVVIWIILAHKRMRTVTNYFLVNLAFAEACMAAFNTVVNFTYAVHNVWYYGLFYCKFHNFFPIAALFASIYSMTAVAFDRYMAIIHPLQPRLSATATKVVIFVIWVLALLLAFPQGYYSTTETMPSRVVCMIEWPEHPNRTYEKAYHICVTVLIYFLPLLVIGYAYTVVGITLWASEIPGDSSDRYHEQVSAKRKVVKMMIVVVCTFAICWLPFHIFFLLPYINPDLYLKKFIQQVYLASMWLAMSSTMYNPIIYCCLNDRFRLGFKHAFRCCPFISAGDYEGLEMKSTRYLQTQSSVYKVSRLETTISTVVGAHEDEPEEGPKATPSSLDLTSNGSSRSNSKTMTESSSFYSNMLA
Chain of NK1 receptors (Rattus norvegicus, UniProt P14600) (P14600 whole entry): as the sequence (P30548 whole entry) above, with V7M, T15I, I266V, D367E counted along it

Regarding `C[C@@H](OC[C@@]1(c2ccccc2)CC[C@](C#N)(n2cn[nH]c2=O)CN1)c1cc(C(F)(F)F)cc(C(F)(F)F)c1` [Compound 42, (3 S,6S)-6-({(1R)-1-[3,5-bis(trifluoromethyl)phenyl]ethoxy}methyl)-3-(5-oxo-1,5dihydro-4H-1,2,4-triazol-4-yl)-6-phenylpiperidine-3-carbonitrile], in data set [1], the “duration of significantly reduced cough amplitude” value is on record as “up to 24 hours”. The “duration of significantly reduced cough frequency” value in data set [1] is given as “up to 24 hours”. The Ki at NK3 receptor is more than 1000 nM; at NK1 receptors [2], 0.76 nM; at NK1 receptors [5], 4.62 nM. Further, on NK3 receptor (NK3 vs NK1), the “fold lower affinity than for the NK1 receptor” value is listed as “greater than 1000 fold”. The compound further showed a logD in the data set “log D, octanol/water” of 4.5. The compound further returned an IC50 on hERG gene current of 860 nM. Further, in data set [3], the “crossing of the blood brain barrier” value is on record as “readily crossed the blood brain barrier”. In addition, the “exposure, effect of sex” value in data set [4] (monkeys) is “independent of sex”. Besides, in data set [4] (monkeys), the “systemic exposure versus dose, single dose” value was “increased with increasing dose”. Moreover, the “plasma concentrations over 24 hours after 29th dose versus first dose” value in data set [4] (monkeys 0.5 to 30 mg/kg) is “greater”. Further, in data set [4] (monkeys, once daily oral doses for one month), the exposure versus dose result is listed as “generally increased as the dose increased”. Further, the major elimination pathway result in data set [4] (monkeys, oral administration) was “excretion into the feces”. In addition, the plasma concentration-time profile entry in data set [4] (monkeys, listed as SCH 900978) was “extended absorption of SCH900978 with a long t1/2”; in data set [4] (monkeys, listed as SCH900978), “extended absorption of the drug and a long apparent terminal elimination phase half-life”.

As a reminder, the Ki is the dissociation constant of the complex between target and ligand, obtained from inhibition or displacement. A high value points to weaker binding. As a reminder, the logD is lipophilicity at a set pH, counting ionised and neutral species. By IC50 is commonly meant the concentration that inhibits the measured activity by half. Read a low IC50 as inhibition by little substance.
